In patent US20250346550A1, “METHODS OF MODULATING ENDONUCLEASE G USING RESVERATROL AND ITS DERIVATIVES” (THE REGENTS OF THE UNIVERSITY OF COLORADO A BODY CORPORATE, priority 2022, published 2025):

Legend:
Format in all cases: in vivo, C. elegans
[1] = tested on: PME defect of rad-23 deficient animals (proteasome pathway); assay: PME microscopy assay in rad-23(tm2595) crosses; settings: 50 μM, 64-cell embryos (FIG. 3d)
Procedure: FIG. 3. Resveratrol isomers target CPS-6 to affect PME. a, b, Both cis-resveratrol and trans-resveratrol act paternally to affect PME. The numbers of MTR-stained paternal mitochondrial clusters in embryos at 64-cell (a) or 16-cell (b) stage from the indicated crosses were scored. N2 males or hermaphrodites were pretreated with 0.25% ethanol (Mock), 50 μM cis-resveratrol (a), or 50 μM trans-resveratrol (b) as indicated before mating. c-g, Quantification of MTR-stained paternal mitochondrial clusters in 64-cell embryos from the indicated crosses treated with 0.25% ethanol (Mock), 50 μM cis-resveratrol, and 50 μM trans-resveratrol, respectively. Alleles used are lgg-1(bp523), cps-6(tm3222) and rad-23(tm2595). Data are mean s.e.m; n≥15 embryos (a) and n≥20 embryos (b, c-g) were scored in each experiment. ***P<0.001; n.s., not significant, two-sided, unpaired t-test. h, Resveratrol isomers enhance or inhibit the nuclease activity of CPS-6 in a plasmid DNA cleavage assay. 10 ng of CPS-6 were incubated with 0.25% ethanol (Mock), 20 μM cis-resveratrol, or 20 μM trans-resveratrol in dark at 4° C. for 1.5 hours, before 1 μg of the pPD49.78 plasmid DNA were added to the reactions. After further incubation at 30° C. for 1 hour, the reactions were resolved on a 1% agarose gel. Three different forms of plasmid DNA are indicated. […]

[2] = tested on: paternal uaDf5 mtDNA in cross-fertilized embryos; assay: PCR-based PME assay (paternal uaDf5 mtDNA); settings: 50 μM; mock: detected up to 64-cell stage embryos
Source text: FIG. 7. Effects of different dosages of resveratrol isomers on PME. a, b, The effects of different dosages of cis-resveratrol (a) and trans-resveratrol (b) on PME. The numbers of MTR-stained paternal mitochondrial clusters in 64-cell embryos (a) or 16-cell embryos (b) from mating of MTR-stained N2 males with N2 hermaphrodites in the presence of the indicated concentrations of resveratrol isomers were scored. […] A single cross-fertilized embryo or larva (MTR- or GFP-positive) at the indicated stage was analyzed by PCR. uaDf5/+ and N2 hermaphrodites were controls.
We confirmed these findings using a polymerase chain reaction (PCR)-based PME assay, which monitors the fate of paternal mtDNA in fertilized eggs from males carrying a 3053 bp mtDNA deletion allele (uaDf5) in a heteroplasmic mixture with wild-type mtDNA (FIG. 7c). In mating between N2 hermaphrodites and uaDf5/+ males treated with the mock control, PCR products derived specifically from paternal uaDf5 mtDNA were detected only in early stage cross-fertilized embryos, up to 64-cell stage embryos (FIG. 2d).

[3] = tested on: LGG-1 autophagosome enclosure of MTR-stained paternal mitochondria in zygotes; assay: autophagosome formation on paternal mitochondria (SIM, anti-LGG-1); settings: males pretreated with 50 μM; for isolated paternal mitochondria: mock 16%; for paternal mitochondria fully enclosed by autophagosomes: mock 49%
Procedure: FIG. 4. Resveratrol isomers affect autophagosome formation on paternal mitochondria. a-f, Analysis of enclosure of MTR-stained paternal mitochondria by LGG-1 autophagosomes. Zygotes from the indicated crosses with MTR-stained N2 males pretreated with 0.25% ethanol (Mock)(a,b), 50 μM trans-resveratrol (c,d), or 50 μM cis-resveratrol (e,f) were labeled with an antibody to LGG-1. Images were acquired with a Nikon SIM microscope. Dashed rectangles highlight the areas enlarged and shown below ([…]). Scale bars, 2 μm (a,c,e), 0.5 μm (b,d,f). g, Quantification of four types of paternal mitochondria in zygotes that were fully enclosed, partially enclosed, and not enclosed (isolated) by the LGG-1 autophagosomes and that had initiating phagophore, respectively. The number of MTR-stained paternal mitochondria scored in each experiment was shown below the pie chart.
CPS-6 plays a key role in promoting internal breakdown of paternal mitochondria and rapid autophagosome formation on damaged paternal mitochondria following fertilization, which leads to their subsequent degradation by autophagy. We tested if resveratrol isomers affect autophagosome formation on paternal mitochondria using superresolution structured illumination microscopy (SIM). In zygotes from mating of MTR-stained and mock-treated N2 males with unstained N2 hermaphrodites, close to one half (49%) of MTR-stained paternal mitochondria were fully enclosed by autophagosomes labeled by anti-LGG-1 monoclonal antibody (FIG. 4a, b and g). The remaining paternal mitochondria either were partially enclosed by autophagosomes (23%), or had adjacent autophagosome membrane that could initiate the elongation process along the paternal mitochondrion (12%; initiating phagophore), or were isolated (16%) with no nearby autophagosome or phagophore (FIG. 4a, b and g). In zygotes from mating of MTR-stained and trans-resveratrol-treated N2 males with N2 hermaphrodites, autophagosome formation on paternal mitochondria increased dramatically, with 75% of paternal mitochondria fully enclosed and 12% of paternal mitochondria partially enclosed by autophagosomes (FIG. 4c, d and g). […] On the other hand, in zygotes from mating between unstained N2 hermaphrodites and MTR-stained and cis-resveratrol-treated N2 males, autophagosome formation on paternal mitochondria decreased substantially.

[4] = tested on: PME defect of lgg-1(bp523) embryos (autophagy pathway); assay: PME microscopy assay in lgg-1(bp523) crosses; settings: 50 μM, 64-cell embryos (FIG. 3c)
Source text: The numbers of MTR-stained paternal mitochondrial clusters were scored as in FIG. 1a. cps-6(tm3222) and lgg-1(bp523) alleles were used in the assays. Data are mean±s.e.m. n=20 embryos (b) and 15 embryos (c) in each experiment. **P<0.01; ***P<0.001; n.s., not significant, two-sided, unpaired t-test.
To investigate how these six compounds might affect PME, the present inventors performed chemical genetic analysis to analyze the PME pathways that might be affected by the compounds. The present inventors first examined whether they might affect the paternal PME pathway mediated by the mitochondrial endonuclease CPS-6, whose activity is inhibited by oxidation and protected by reducing agents.

Row | SMILES | effect on PME defects in rad-23 deficient animals [1] | fate of paternal uaDf5 mtDNA [2] | isolated paternal mitochondria [3] | paternal mitochondria partially enclosed by autophagosomes ([3]; mock 23%) | paternal mitochondria fully enclosed by autophagosomes [3] | effect on PME defects of the lgg-1(bp523) mutant [4]
1 | Oc1ccc(/C=C/c2cc(O)cc(O)c2)cc1 [trans-resveratrol, 3,5,4′-trihydroxy-trans-stilbene] | inhibited | accelerated degradation of uaDf5 mtDNA | 7% | 12% | 75% | suppressed
2 | Oc1ccc(/C=C\c2cc(O)cc(O)c2)cc1 [cis-resveratrol] | enhanced | persistence of uaDf5 mtDNA to the late 4-fold embryos | 31% | – | 35% | enhanced
